≈ marks a conversion by molar mass, not a printed value. Like-named read-outs stand apart in the source and are kept apart here. Non-standard residues stand in square brackets, D forms with d. Residues, ends and D or L forms follow the SMILES beside them. ξ: configuration not given here. *: point of attachment. Tos = Cc1ccc(S(=O)(=O)*)cc1; βNA = c1ccc2cc(N*)ccc2c1; ξA = CC(N)C(=O)O
Columns and labels:
Liver function tests = type: in vivo; set-up: Glucose: unit not given here; settings: mice, 10 mg/kg
Excerpt: Twenty-four hours before the injecting the compounds, the blood sample of five mice was taken and it was also taken after the last day of treatment, the animals were sacrificed by cervical dislocation and the blood samples were collected by heart puncture. The blood samples for haematological parameters (red blood cell (RBC) count, white blood cell (WBC) count, packed cell volume (PCV), and hemoglobin (HGB)) were collected into EDTA bottles and analyzed using an automated machine (Automated CBC Analyzer: Sysmex KX-21). The liver function tests carried out with the blood of the rats fed with the sulfonamide derivatives were aspartate aminotransperase (AST), alanine transaminase (ALT) and alkaline phosphatase (ALP). Standard laboratory procedure according to Reitman and Franke[32] was used for the determination of parameters.

S. typhi = assay: Antimicrobial MIC, agar cup diffusion; type: cell-based; settings: Salmonella enterica, read-out: MIC (minimum inhibitory concentration)
C. albicans = assay: Antimicrobial MIC, agar cup diffusion; type: cell-based; settings: Candida albicans, read-out: MIC (minimum inhibitory concentration)
P. falciparum strain W2 = assay: In vitro antimalarial assay; type: cell-based; settings: Plasmodium falciparum, W2; P. falciparum, 48 h, >99% of parasites inhibited from developing to schizonts
[1] = system: Plasmodium berghei infection in mice; assay: In vivo antimalaria test; settings: P. berghei infected mice; for inhibition in vivo at 100 mg/kg / inhibition in vivo at 200 mg/kg: Plasmodium berghei, oral
Procedure: Experimental Design and Treatment of Mice. Methods of Peter et al.[30] and Kalra et al.[31] for antiplasmodial assay against Plasmodium berghei infection in mice with some modifications were employed. About eighty infected mice were randomly divided into five groups, each having […] mice. The inoculum was prepared from a donor mouse with rising parasitemia of 60.42%. After 7 days of infection, animals begin to receive treatment (100 and 200 mg/kg b wt.) of the synthesized compounds (7a–7n) for 12 days with constant check of the percentage of parasitemia after a 4-day interval. Artemisinin (100 and 200 mg/kg body weight.) was given to the other mice in group three as positive control, group four was not treated and group five was not infected. All the compounds and the drugs were given orally by using a standard intragastric tube. For all parasitemia determination, blood samples were collected from tail snip of each mouse and thin smears prepared and stained with 10% Giemsa solution. The uniform fields of each stained slide (for each mouse) were examined under microscope with an oil immersion objective of 100X magnification power and average percent of parasitemia was determined.
To determine the in vivo activity, the compounds were tested against P. berghei NK(65 Strain) infection mice., the animals were obtained from Nigeria institute for Trypanosoma and onchocercarioses Research (NTIR) Vom, Plateau State Nigeria. The permission and approval for the use of animals in this experiment were granted by the Animal Ethics Committee, Federal College of Vetrenary Medical Laboratory, Vom, Plateau State. Method of Peter et al.[30], for antiplasmodial assay against P. berghei in mice with some modification were employed. Artemisimin was used as treated control of the experiments. The percentage inhibition of parasite multiplication was calculated comparing the treated group with untreated group by means of the following formula[39] [(A − B)/A] × 100; where A = parasitaemia in the untreated group and B = parasitemia in the test group. […] Most of the compounds were active against P. berghei after 7 days post-infection by reducing the parasiteamia by at least 40% when in a dose of 100 mg/kg (Table 5). The inhibition of parasitaemia increased on 12th day post infection for almost all the compounds. […] However in consideration of the compounds ability to inhibit parasitaemia to the control drug. […] These compounds should be considered for further studies because of its promising activities.

K. pneumoniae = assay: Antimicrobial MIC, agar cup diffusion; type: cell-based; settings: Klebsiella pneumoniae, read-out: MIC (minimum inhibitory concentration)
Haematological analysis = type: in vivo, mice
Excerpt: (§1) Twenty-four hours before the injecting the compounds, the blood sample of five mice was taken and it was also taken after the last day of treatment, the animals were sacrificed by cervical dislocation and the blood samples were collected by heart puncture. The blood samples for haematological parameters (red blood cell (RBC) count, white blood cell (WBC) count, packed cell volume (PCV), and hemoglobin (HGB)) were collected into EDTA bottles and analyzed using an automated machine (Automated CBC Analyzer: Sysmex KX-21).
The blood samples for haematological parameters (red blood cell (RBC) count, white blood cell (WBC) count, packed cell volume (PCV), and haemoglobin (HGB)) were collected into EDTA bottles and analyzed using an automated machine (Automated CBC Analyzer: Sysmex KX-21) (Table 8). From the analysis, even though there is a decrease in the value of RBC, PCV and HB, it is observed that there is no significant changes in the parameters that were analyzed for the control and the test compounds.

B. subtilis = assay: Antimicrobial MIC, agar cup diffusion; type: cell-based; settings: Bacillus subtilis; B. subtilis; read-out: MIC (minimum inhibitory concentration)
E. coli = assay: Antimicrobial MIC, agar cup diffusion; type: cell-based; settings: Escherichia coli, read-out: MIC (minimum inhibitory concentration)
[2] = Renal or kidney function test; type: in vivo; settings: mice, 10 mg/kg
Excerpt: as §1, with “KX-21). Kidney function tests carried out with the blood of the rats fed with the sulfonamide derivatives were, creatinine and albunim. The method reported by Kaplan and Tengv[33] was used in the determination of creatinine.” for “KX-21).”

A. niger = assay: Antimicrobial MIC, agar cup diffusion; type: cell-based; settings: Aspergillus niger, read-out: MIC (minimum inhibitory concentration)
[3] = 168 h, read-out: % inhibition 7 days post-treatment (100 mg/kg), day 7
[4] = 168 h, read-out: % inhibition 7 days post-treatment (200 mg/kg), day 7
[5] = 288 h, read-out: % inhibition 12 days post-treatment (100 mg/kg), day 12
[6] = 288 h, read-out: % inhibition 12 days post-treatment (200 mg/kg), day 12

Compound Cc1ccc(S(=O)(=O)NC(C)C(=O)NCC(=O)Nc2cccc(F)c2)cc1 (stereo not drawn) [Compound 7j, N-(2-((3-fluorophenyl)amino)-2-oxoethyl)-2–(4-methylphenylsulfonamido)propanamide] has an ALT (Liver function tests; After) of 25.5 µ/L, an AST (Liver function tests; After) of 60.0 µ/L and a Bilirubin (Liver function tests; After) of 0.2 mg/dL. For the same compound, the T.P. (Liver function tests; After) was 5.8 g/dL, the ALT (Liver function tests; Before) was 26.3 µ/L and the AST (Liver function tests; Before) was 65.0 µ/L. The Bilirubin (Liver function tests; Before) was 0.4 mg/dL, the T.P. (Liver function tests; Before) was 6.0 g/dL and the MIC (S. typhi) was 129 µg/mL (≈ 328 µM). For the same compound, the MIC (C. albicans) was 371 µg/mL (≈ 943 µM), the MIC (P. falciparum strain W2) was 0.88 µM (≈ 0.346 µg/mL) and the “ability to inhibit parasitaemia compared to the control drug” value ([1]; in words) was “almost the same or better activity compared to the artemisinin”. It also gave an inhibition in vivo at 100 mg/kg [1, 3] of 77.9%, an inhibition in vivo at 200 mg/kg [1, 4] of 77.4% and an inhibition in vivo at 100 mg/kg [1, 5] of 82.7%. For the same compound, the inhibition in vivo at 200 mg/kg [1, 6] was 73.5%, the MIC (K. pneumoniae) was 83 µg/mL (≈ 211 µM) and the HB (Haematological analysis; After treatment) was 10.0 g/dL. The PCV (Haematological analysis; After treatment) was 34%, the RBC (Haematological analysis; After treatment) was 6.5 × 10^6 mm^3 and the WBC (Haematological analysis; After treatment) was 9.1 × 10^3 mm^3. For the same compound, the HB (Haematological analysis; Before treatment) was 13.5 g/dL, the PCV (Haematological analysis; Before treatment) was 39% and the RBC (Haematological analysis; Before treatment) was 7.1 × 10^6 mm^3. The WBC (Haematological analysis; Before treatment) was 8.0 × 10^3 mm^3, the MIC (B. subtilis) was 245 µg/mL (≈ 623 µM) and the MIC (E. coli) was 275 µg/mL (≈ 699 µM). For the same compound, the Albumin ([2]; After) was 4.0 g/dL, the Creatinine ([2]; After) was 0.3 mg/dL and the Albumin ([2]; Before) was 3.9 g/dL. For the same compound, the Creatinine ([2]; Before) was 0.4 mg/dL.

In the case of Cc1ccc(S(=O)(=O)NC(C)C(=O)NCC(=O)Nc2ccc(F)cc2)cc1 (stereo not drawn) [Compound 7k, N-(2-((4-fluorophenyl)amino)-2-oxoethyl)-2–(4-methylphenylsulfonamido)propanamide], the MIC (S. typhi) is reported as 3160 µg/mL (≈ 8030 µM), the MIC (C. albicans) is reported as 63.1 µg/mL (≈ 160 µM) and the MIC (P. falciparum strain W2) is reported as 0.53 µM (≈ 0.209 µg/mL). The inhibition in vivo at 100 mg/kg [1, 3] was 40.4%, the inhibition in vivo at 200 mg/kg [1, 4] was 54.9% and the inhibition in vivo at 100 mg/kg [1, 5] was 44.3%. It also gave an inhibition in vivo at 200 mg/kg [1, 6] of 56.4%, an MIC (K. pneumoniae) of 79 µg/mL (≈ 201 µM) and an MIC (A. niger) of 316 µg/mL (≈ 803 µM). For the same compound, the MIC (B. subtilis) was 371 µg/mL (≈ 943 µM) and the MIC (E. coli) was 316 µg/mL (≈ 803 µM).

Compound CC(NS(=O)(=O)c1ccccc1)C(=O)NCC(=O)Nc1cccc(F)c1 (stereo not drawn) [Compound 7c] has an ALT (Liver function tests; After) of 23.5 µ/L, an AST (Liver function tests; After) of 61.5 µ/L and a Bilirubin (Liver function tests; After) of 0.5 mg/dL. It also gave a Glucose (Liver function tests; After) of 5.0, a T.P. (Liver function tests; After) of 5.5 g/dL and an ALT (Liver function tests; Before) of 20.5 µ/L. The AST (Liver function tests; Before) was 62.0 µ/L, the Bilirubin (Liver function tests; Before) was 0.3 mg/dL and the Glucose (Liver function tests; Before) was 5.6. The T.P. (Liver function tests; Before) was 5.8 g/dL, the MIC (S. typhi) was 2690 µg/mL (≈ 7090 µM) and the MIC (C. albicans) was 3470 µg/mL (≈ 9140 µM). The MIC (P. falciparum strain W2) was 0.72 µM (≈ 0.273 µg/mL), the inhibition in vivo at 100 mg/kg [1, 3] was 48.3% and the inhibition in vivo at 200 mg/kg [1, 4] was 40.2%. For the same compound, the inhibition in vivo at 100 mg/kg [1, 5] was 51.3%, the inhibition in vivo at 200 mg/kg [1, 6] was 48.7% and the MIC (K. pneumoniae) was 129 µg/mL (≈ 340 µM). The HB (Haematological analysis; After treatment) was 9.8 g/dL, the PCV (Haematological analysis; After treatment) was 33% and the RBC (Haematological analysis; After treatment) was 6.0 × 10^6 mm^3. The WBC (Haematological analysis; After treatment) was 9.0 × 10^3 mm^3, the HB (Haematological analysis; Before treatment) was 14.5 g/dL and the PCV (Haematological analysis; Before treatment) was 38%. The RBC (Haematological analysis; Before treatment) was 7.5 × 10^6 mm^3, the WBC (Haematological analysis; Before treatment) was 10.3 × 10^3 mm^3 and the MIC (B. subtilis) was 3470 µg/mL (≈ 9140 µM). The MIC (E. coli) was 372 µg/mL (≈ 980 µM), the melting point was 125 to 127 °C and the Albumin ([2]; After) was 3.0 g/dL. The Creatinine ([2]; After) was 0.3 mg/dL, the Albumin ([2]; Before) was 3.5 g/dL and the Creatinine ([2]; Before) was 0.3 mg/dL.

With Cc1ccc(S(=O)(=O)NC(C)C(=O)NCC(=O)Nc2ccc3ccccc3c2)cc1 (stereo not drawn) [Compound 7n, 2–(4-methylphenylsulfonamido)-N-(2-(naphthalene-2-ylamino)-2-oxoethyl)propanamide] (Tos-[ξA]-Gly-βNA) the MIC (S. typhi) was 617 µg/mL (≈ 1450 µM), the MIC (C. albicans) was 155 µg/mL (≈ 364 µM) and the MIC (P. falciparum strain W2) was 2.34 µM (≈ 0.996 µg/mL). For the same compound, the inhibition in vivo at 100 mg/kg [1, 3] was 47.8%, the inhibition in vivo at 200 mg/kg [1, 4] was 63.8% and the inhibition in vivo at 100 mg/kg [1, 5] was 49.1%. The inhibition in vivo at 200 mg/kg [1, 6] was 71.7%, the MIC (A. niger) was 39 µg/mL (≈ 91.7 µM) and the MIC (E. coli) was 123 µg/mL (≈ 289 µM). It also gave a melting point of 174 to 176 °C.

With OC(Cn1cncn1)(Cn1cncn1)c1ccc(F)cc1F [FLU, Fluconazole, reference compound] the MIC (C. albicans) was 21.7 µg/mL (≈ 70.9 µM) and the MIC (A. niger) was 47.1 µg/mL (≈ 154 µM).

— PMC6713104, “New peptide derived antimalaria and antimicrobial agents bearing sulphonamide moiety” (Journal of Enzyme Inhibition and Medicinal Chemistry, 2019)
